Reference: patent US20200339651A1, “METHODS FOR B CELL PRECONDITIONING IN CAR THERAPY” (Novartis AG, priority 2014, published 2020)

Legend:
huCAR19 CAR T cells = test: In vivo proliferation of humanized CD19 CART cells with and without RAD001 dosing; set-up: species or system NSG mice
Method: Circles denote PBS; squares denote huCTL019; triangles denote huCTL019 with 3 mg/kg RAD001; inverted triangles denote huCTL019 with 0.3 mg/kg RAD001; diamonds denote huCTL019 with 0.03 mg/kg RAD001; and circles denote huCTL019 with 0.003 mg/kg RAD001.
Mice were administered 5×10^6 CAR T cells 7 days after tumor implantation. Cells were partially thawed in a 37 degree Celsius water bath and then completely thawed by the addition of 1 ml of cold sterile PBS to the tube containing the cells. The thawed cells were transferred to a 15 ml falcon tube and adjusted to a final volume of 10 mls with PBS. The cells were washed twice at 1000 rpm for 10 minutes each time and then counted on a hemocytometer. T cells were then resuspended at a concentration of 50×10^6 CAR T cells per ml of cold PBS and kept on ice until the mice were dosed. The mice were injected intravenously via the tail vein with 100 μl of the CAR T cells for a dose of 5×10^6 CAR T cells per mouse. Eight mice per group were treated either with 100 μl of PBS alone (PBS), or humanized CD19 CAR T cells.
(§1) A concentrated micro-emulsion of 50 mg equal to 1 mg RAD001 was formulated and then resuspended in D5W (dextrose 5% in water) at the time of dosing. Mice were orally dosed daily (via oral gavage) with 200 μl of the desired doses of RAD001.
Based on these doses, huCAR19 CAR T cells were dosed with and without RAD001 to determine the proliferative ability of these cells. The highest dose used was 3 mg/kg based on the levels of RAD001 in the blood 24 hours after dosing. As the concentration of RAD001 was above 10 nM 24 hours after the final dose of RAD001, several lower doses of RAD001 were used in the in vivo study with CAR T cells. The CAR T cells were dosed IV one day prior to the start of the daily oral RAD001 dosing. Mice were monitored via FACS for T cell expansion.

[1] = Pharmacokinetics of RAD001 in the blood of NSG mice with NALM6 tumors; type: in vivo
Method: Diamonds denote the […] dose of RAD001; squares denote the 1 mg/kg dose of RAD001; triangles denote the 3 mg/kg dose of RAD001; and x's denote the 10 mg/kg dose of RAD001.
as §1
Mice were dosed daily with RAD001 starting 7 days post tumor implantation. Dosing groups were as follows: 0.3 mg/kg, 1 mg/kg, 3 mg/kg, and 10 mg/kg. Mice were bled on days 0 and 14 following the first and last dose of RAD001, at the following time points for PK analysis: 15 minutes, 30 minutes, 1 hour, 2 hours, 4 hours, 8 hours, 12 hours, and 24 hours.

huCART19 cells = test: CART proliferation in 4 day co-culture with Nalm-6 cells in the presence of RAD001; type: cell-based, human
From the text: A humanized, anti-human CD19 CAR (huCART19) lentiviral transfer vector was used to produce the genomic material packaged into VSVg pseudotyped lentiviral particles. The amino acid and nucleotide sequence of the humanized anti-human CD19 CAR (huCART19) is CAR 1, ID 104875 described in PCT publication, WO2014/153270, filed Mar. 15, 2014, and is designated SEQ ID NOs. 85 and 31 therein.
Lentiviral transfer vector DNA is mixed with the three packaging components VSVg env, gag/pol and rev in combination with lipofectamine reagent to transfect Lenti-X 293T cells. Medium is changed after 24 h and 30 h thereafter, the virus-containing media is collected, filtered and stored at −80° C. CARTs are generated by transduction of fresh or frozen naïve T cells obtained by negative magnetic selection of healthy donor blood or leukopak. T cells are activated by incubation with anti-CD3/anti-CD28 beads for 24 h, after which viral supernatant or concentrated virus (MOI=2 or 10, respectively) is added to the cultures. The modified T cells are allowed to expand for about 10 days. The percentage of cells transduced (expressing the CARs on the cell surface) and the level of CAR expression (relative fluorescence intensity, Geo Mean) are determined by flow cytometric analysis between days 7 and 9. The combination of slowing growth rate and T cell size approaching ˜350 fL determines the state for T cells to be cryopreserved for later analysis.
To evaluate the functionality of CARTs, the T cells are thawed and counted, and viability is assessed by Cellometer. The number of CAR-positive cells in each culture is normalized using non-transduced T cells (UTD). The impact of RAD001 on CARTs was tested in titrations with RAD001, starting at 50 nM. The target cell line used in all co-culture experiments is Nalm-6, a human pre-B cell acute lymphoblastic leukemia (ALL) cell line expressing CD19 and transduced to express luciferase.
For measuring the proliferation of CARTs, T cells are cultured with target cells at a ratio of 1:1. […] The number of T cells is assessed by flow cytometry using counting beads as reference.

NALM6-luc tumors = test: NALM6-luc tumor growth in NSG mice with daily RAD001 dosing; type: in vivo; conditions: daily oral dosing of RAD001 alone at 0.3, 1, 3, and 10 mg/kg
Method: FIG. 8 depicts tumor growth measurements of NALM6-luc cells with daily RAD001 dosing at 0.3, 1, 3, and 10 mg/kg (mpk) or vehicle dosing. Circles denote the vehicle; squares denote the 10 mg/kg dose of RAD001; triangles denote the 3 mg/kg dose of RAD001, inverted triangles denote the 1 mg/kg dose of RAD001; and diamonds denote the 0.3 mg/kg dose of RAD001.
The NALM6 human acute lymphoblastic leukemia (ALL) cell line was developed from the peripheral blood of a patient with relapsed ALL. The cells were then tagged with firefly luciferase. These suspension cells grow in RPMI supplemented with 10% heat inactivated fetal bovine serum.
6 week old NSG (NOD.Cg-Prkdc^scidIl2rg^tm1Wjl/SzJ) mice were received from the Jackson Laboratory (stock number 005557).
NALM6-luc cells were grown and expanded in vitro in RPMI supplemented with 10% heat inactivated fetal bovine serum. The cells were then transferred to a 15 ml conical tube and washed twice with cold sterile PBS. NALM6-luc cells were then counted and resuspended at a concentration of 10×10^6 cells per milliliter of PBS. The cells were placed on ice and immediately (within one hour) implanted in the mice. NALM6-luc cells were injected intravenously via the tail vein in a 100 μl volume, for a total of 1×10^6 cells per mouse. […]

- concentration of RAD001 ([1]; 24 hours after the final dose of RAD001): above 10 nM
- concentration at 24 h ([1]; NSG, mouse, whole blood, day 0, 24 hours after dosing, lowest dose tested (0.3 mg/kg), oral): > 10 nM
- RAD001 concentration in the blood ([1]; day 14, 24 hours after dosing, lowest dose tested (0.3 mg/kg), oral): above 10 nm
- stability in the blood ([1]; tumor bearing mice): fairly stable
Structure (SMILES): CO[C@H]1C[C@@H]2CC[C@@H](C)[C@@](O)(O2)C(=O)C(=O)N2CCCC[C@H]2C(=O)O[C@H]([C@H](C)C[C@@H]2CC[C@@H](OCCO)[C@H](OC)C2)CC(=O)[C@H](C)/C=C(\C)[C@@H](O)[C@@H](OC)C(=O)[C@H](C)C[C@H](C)/C=C/C=C/C=C/1C [RAD001, (1R,9S,12S,15R,16E,18R,19R,21R,23S,24E,26E,28E,30S,32S,35R)-1,18-dihydroxy-12-{(1R)-2-[(1S,3R,4R)-4-(2-hydroxyethoxy)-3-methoxycyclohexyl]-1-methylethyl}-19,30-dimethoxy-15,17,21,23,29,35-hexamethyl-11,36-dioxa-4-aza-tricyclo[30.3.1.04,9]hexatriaconta-16,24,26,28-tetraene-2,3,10,14,20-pentaone]
- CAR T cell proliferation in vivo (huCAR19 CAR T cells; RAD001 0.003 mg/kg daily, huCTL019): enhancement in CAR T cell proliferation, above the normal level of huCAR19 proliferation
- enhanced proliferation of CD4+ CAR T cells compared with CD8+ CAR T cells (huCAR19 CAR T cells; lowest doses of RAD001): more evident and prolonged
- proliferation of CD8+ CAR T cells (huCAR19 CAR T cells; lowest doses of RAD001): enhanced proliferation can be seen at early time points
- proliferation of the CAR T cells in vivo (huCAR19 CAR T cells; lowest doses of RAD001, daily oral): enhanced proliferation
- proliferation of huCART19 cells compared with no RAD001 (huCART19 cells; 0.0032 and 0.016 nM RAD001, 4 day co-culture with Nalm-6): proliferation was higher than observed without the addition of RAD001
- expansion of huCART19 cells (huCART19 cells; less than 0.016 nM of RAD001, 4 day co-culture with Nalm-6, 1:1): expanded
- proliferation of CAR-expressing, transduced T cells (huCART19 cells; low doses of RAD001, cell culture system): enhanced
- growth of NALM6-luc tumors (NALM6-luc tumors): did not have an impact
